The values below come from EPA's ToxValDB 9.5 (doi:10.2903/j.efsa.2008.144r).

Structures are written as SMILES. Values after ≈ are worked out from the molar mass of the structure shown. Where only a bound is given, the exact number is not on record here.

The subject of data set [1] is Aphidius rhopalosiphi. In words: LR50; higher = less toxic. The note with it: not reported; mortality.
The test system of data set [2] is Zea sp. The note with it: not reported; other.
In data set [3] the test system is Pleurozium sp. The note with it: acute; duration: 72 hours; biomass.
The test system of data set [4] is Oryctolagus sp. The note with it: developmental; development.
The test system of data set [5] is Bibionidae. The note with it: chronic/long-term; duration: 20 days.
In data set [6] the test system is Lepomis macrochirus. The note with it: acute; duration: 96 hours; mortality.
Data set [7] has as its system Daphnia magna. The note with it: acute; duration: 48 hours; reproduction.
Data set [8] deals with Tagia sp.
The test system of data set [9] is Oncorhynchus mykiss. The note with it: chronic/long-term; duration: 94 days.
Data set [10] deals with Colinus virginianus.
For data set [11], the system named is Rattus norvegicus.
For data set [12], the system named is Apis mellifera. The note with it: acute; duration: 48 hours; oral; unspecified; mortality.

By NOAEL is commonly meant the highest tested level that showed no adverse finding.

For the compound `CC(Cc1ccc(C(C)(C)C)cc1)CN1C[C@@H](C)O[C@@H](C)C1` (stereo partly drawn) [(2R,6S)-Fenpropimorph], the LR50 in [1] worked out at 25.7 g/ha. This compound also gave an LEL in [2] of 1690 g/ha. For the same compound, the NOEC is 0.005 mg/L in data set [3]; 0.13 mg/L in data set [5]; 0.024 mg/L in [7]; 9.92 mg/kg in data set [8] (chronic/long-term); 0.00016 mg/L in data set [9]; above 30.3 mg/kg-day in data set [10] (reproduction developmental). Besides, the no-observed-adverse-effect level (NOAEL) in [4] was 15 mg/kg-day; in data set [11] (chronic, duration: 2 years, organ weight), 0.3 mg/kg-day; in data set [11] (subchronic, duration: 90 days, oral, clinical chemistry), 0.7 mg/kg-day. For the same compound, the LC50 in data set [6] was 2.3 µg/mL (≈ 7.58 µM); in data set [8] (acute, duration: 14 days, mortality), above 1000 mg/kg. For the same compound, the LD50 is above 2000 mg/kg in data set [10] (acute, oral, mortality); 2230 mg/kg in data set [11] (acute, oral, mortality); above 95.6 µg/piece in data set [12]. Also, the NOAEC in [11] (reproduction developmental, duration: 24 months, reproduction) came to 16 mg/kg-day.
